US11214578B2, “Urea/carbamates FAAH MAGL or dual FAAH/MAGL inhibitors and uses thereof” (Northeastern University, priority 2014, dated 2022)

How the values were obtained:
ΔTM rat FAAH = target: T1, ΔTM rat FAAH (Rattus norvegicus, UniProt P97612); assay: Fluorescent assay protocol for ΔTM rat FAAH (AAMCA substrate); format: biochemical; details: 15 min preincubation, read-out: IC50 rFAAH
T1 construct: Preparation of Transmembrane Domain-Deleted Rat FAAH (ΔTM rFAAH); made in house; host or cells: E. coli
T1 sequence (P97612 30-579 limits assumed): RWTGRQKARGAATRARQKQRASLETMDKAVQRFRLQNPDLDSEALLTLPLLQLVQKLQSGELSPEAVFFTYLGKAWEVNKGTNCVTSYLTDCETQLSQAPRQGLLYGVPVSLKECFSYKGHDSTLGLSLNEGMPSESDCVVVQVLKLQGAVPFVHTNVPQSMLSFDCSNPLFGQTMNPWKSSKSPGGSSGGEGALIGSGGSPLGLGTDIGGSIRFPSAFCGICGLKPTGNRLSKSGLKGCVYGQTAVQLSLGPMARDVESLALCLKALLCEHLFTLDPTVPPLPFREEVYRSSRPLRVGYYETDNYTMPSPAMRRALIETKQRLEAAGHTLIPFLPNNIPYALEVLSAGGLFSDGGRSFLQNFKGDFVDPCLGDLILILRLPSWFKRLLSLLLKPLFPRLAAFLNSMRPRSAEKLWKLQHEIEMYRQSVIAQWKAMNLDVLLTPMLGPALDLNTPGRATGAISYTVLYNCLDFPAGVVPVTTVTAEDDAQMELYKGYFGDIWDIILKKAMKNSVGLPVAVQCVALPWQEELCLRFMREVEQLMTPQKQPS
Method in brief: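 ΔTM rat FAAH (15 μg) was pre-incubated 15 min at 25° C with compound (screening at 1, 10 and 100 μM), then reacted with the fluorigenic substrate AAMCA. Percent inhibition came from fluorescence at 3 h (linear kinetics) relative to no-inhibitor controls, in triplicate.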

Human FAAH (MBPΔTMhFAAH) = target: T2, Human FAAH (MBPΔTMhFAAH) (Homo sapiens, UniProt O00519); assay: Fluorescent assay protocol for hFAAH; format: biochemical; details: human FAAH (MBP fusion, ΔTM), procedure as for rFAAH
T2 construct: made in house; host or cells: E. coli (pMALcE4 vector)
T2 sequence (O00519 30-579 limits assumed): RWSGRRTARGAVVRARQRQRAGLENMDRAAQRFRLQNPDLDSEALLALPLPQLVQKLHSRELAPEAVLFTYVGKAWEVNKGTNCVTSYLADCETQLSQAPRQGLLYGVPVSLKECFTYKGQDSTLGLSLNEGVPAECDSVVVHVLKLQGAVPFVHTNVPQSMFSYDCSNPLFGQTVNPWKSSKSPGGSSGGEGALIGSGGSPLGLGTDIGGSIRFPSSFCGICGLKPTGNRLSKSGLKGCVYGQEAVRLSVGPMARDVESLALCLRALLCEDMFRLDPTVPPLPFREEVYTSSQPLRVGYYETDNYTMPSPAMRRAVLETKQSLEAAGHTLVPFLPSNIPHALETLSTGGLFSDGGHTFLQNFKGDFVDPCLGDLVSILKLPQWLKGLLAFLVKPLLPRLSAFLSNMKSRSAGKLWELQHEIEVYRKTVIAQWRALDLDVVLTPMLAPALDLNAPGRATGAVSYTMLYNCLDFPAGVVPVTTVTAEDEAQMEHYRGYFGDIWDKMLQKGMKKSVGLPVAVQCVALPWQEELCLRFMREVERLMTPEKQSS
Method in brief: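 MBP-fused ΔTM human FAAH from E. coli, pre-incubated 15 min at 25 °C with compound in 50 mM HEPES, 1 mM EDTA, 0.1% BSA, pH 7.4 (DMSO below 8%). Substrate AAMCA 20 μM (2×Km); fluorescence (ex 360/em 460) at 3 h gave % inhibition vs uninhibited control, triplicate, IC50 fitted.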

Rat MAGL (rMAGL) = target: T3, Rat MAGL (rMAGL) (Rattus norvegicus, UniProt Q8R431); assay: Fluorescent assay protocol for rMAGL; format: biochemical; details: recombinant rat MAGL, procedure as for hMAGL; read-out: IC50 rMAGL
T3 construct: made in house; host or cells: E. coli
T3 sequence (Q8R431 1-303): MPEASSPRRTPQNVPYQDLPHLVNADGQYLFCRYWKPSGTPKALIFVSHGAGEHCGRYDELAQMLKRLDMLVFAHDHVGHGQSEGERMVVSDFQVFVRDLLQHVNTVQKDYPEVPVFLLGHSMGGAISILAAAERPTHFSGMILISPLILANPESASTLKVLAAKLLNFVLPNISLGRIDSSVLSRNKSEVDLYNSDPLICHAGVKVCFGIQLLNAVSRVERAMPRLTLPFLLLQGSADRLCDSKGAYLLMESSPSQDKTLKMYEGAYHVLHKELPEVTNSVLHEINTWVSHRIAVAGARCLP
Method in brief: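 Rat MAGL run as for the human enzyme: AHMMCE substrate hydrolysis to fluorescent coumarin followed at 25° C. for 120 min, read every 15 min at 360/460 nm.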

Human MAGL (hMAGL) = target: T4, Human MAGL (hMAGL) (Homo sapiens, UniProt Q99685); assay: Fluorescent assay protocol for hMAGL (AHMMCE substrate); format: biochemical; details: recombinant human MAGL, AHMMCE substrate, 15 min preincubation; read-out: IC50 hMAGL
T4 construct: hexahistidine; made in house; host or cells: E. coli
T4 sequence (Q99685 1-303): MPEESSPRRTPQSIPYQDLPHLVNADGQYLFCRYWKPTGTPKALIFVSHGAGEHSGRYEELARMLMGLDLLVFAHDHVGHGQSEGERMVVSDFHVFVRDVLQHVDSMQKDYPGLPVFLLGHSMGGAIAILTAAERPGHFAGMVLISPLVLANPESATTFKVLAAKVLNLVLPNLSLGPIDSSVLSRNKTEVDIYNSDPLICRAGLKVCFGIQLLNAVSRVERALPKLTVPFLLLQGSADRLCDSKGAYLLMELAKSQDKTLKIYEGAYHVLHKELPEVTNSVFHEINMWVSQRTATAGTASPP
Method in brief: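 Hydrolysis of AHMMCE by human MAGL was monitored at 25°C for 120 min, with fluorescence at 360/460 nm recorded every 15 min and converted to 4-methylcoumarin using external standards. IC50 values were derived from triplicate wells at each inhibitor concentration.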

[1] = Blood brain barrier (BBB) permeability studies; details: brain and plasma; blood-brain distribution, in vivo; read-out: brain/plasma ratio
Text: Novel compounds were studied for their abilities to cross the blood brain barrier based on procedures adapted from Cluny, et al (2010), British journal of pharmacology 161: 629; Rahn, et al (2011) Pharmacology biochemistry, and behavior 98: 493; Wood et al (2013) Life sciences 92: 482.

[2] = system: LiCl-induced anticipatory nausea in rats; assay: Anticipatory nausea studies (LiCl-paired context, gapes); format: in vivo, rat; details: for amelioration of LiCl-induced anticipatory nausea: 20 mg/Kg; for Mean number of gapes elicited by a LiCl-paired context: 20 mg/Kg pretreatment, vehicle 22 gapes
Text: Novel compounds were studied for their ability to ameliorate LiCl-induced anticipatory nausea in rats following the procedures described in Limebeer, C. L. et al Psychopharmacology (2014) 231:603-612. […] Mean number of gapes elicited by a LiCl-paired context in an anticipatory nausea test following pretreatment with a MAGL inhibitor compound 46 and dual FAAH/MAGL inhibitor 52 were 8 and 3 respectively, compared to animals treated with vehicle which show 22 gapes.

[3] = system: human prostate cancer PC-3M cells; assay: Xenograft model of advanced prostate cancer; format: in vivo, mouse; details: nude mice, PC-3M xenograft, 20 mg/kg daily i.p. for 21 days
Description: Compounds were studied for their abilities to retard tumor growth in mouse xenograft model expressing aggressive human prostate cancer PC-3M cells. Tumors were established in immunodeficient nude mice (Taconic Farms) according to standard protocol and mice were divided in two groups. Mouse in each group was injected intraperitoneally (i.p.) with vehicle or compounds (20 mg/kg daily) for 21 days. Tumor sizes were measured with callipers every 3 days.

With `C[C@H]1CN(C(=O)Nc2cccc(-c3cccc(C(N)=O)c3)c2)CCN1Cc1ccc2ccccc2n1` [Example 1, (S)—N-(3′-carbamoyl-[1,1′-biphenyl]-3-yl)-3-methyl-4-(quinolin-2-ylmethyl) piperazine-1-carboxamide] the IC50 (ΔTM rat FAAH) was 10 to 100 nM, the IC50 (Human FAAH (MBPΔTMhFAAH)) was 10 to 100 nM and the IC50 (Rat MAGL (rMAGL)) was greater than 1000 nM. For the same compound, the IC50 (Human MAGL (hMAGL)) was greater than 1000 nM and the Kp [1] was 0.03.
`NC(=O)c1cccc(-c2cccc(NC(=O)N3CCC(c4ccccc4)CC3)c2)c1` [Example 7, N-(3′-carbamoyl-[1,1′-biphenyl]-3-yl)-4-phenylpiperidine-1-carboxamide] gave an IC50 (ΔTM rat FAAH) of 10 to 100 nM, an IC50 (Human FAAH (MBPΔTMhFAAH)) of 10 to 100 nM and an IC50 (Rat MAGL (rMAGL)) greater than 1000 nM. It also gave an IC50 (Human MAGL (hMAGL)) greater than 1000 nM and a Kp [1] of 0.17.
With `N#Cc1cccc(OC(=O)N2CCC(C(c3ccccc3)c3ccccc3)CC2)c1` [Example 46, 3-Cyanophenyl 4-benzhydrylpiperidine-1-carboxylate] the IC50 (ΔTM rat FAAH) was 10 to 100 nM, the IC50 (Human FAAH (MBPΔTMhFAAH)) was 10 to 100 nM and the “amelioration of LiCl-induced anticipatory nausea” value [2] was “ameliorated anticipatory nausea”. For the same compound, the “Mean number of gapes elicited by a LiCl-paired context” value [2] was 8, the “reduction in tumor sizes” value ([3]; compared to vehicle) was 43% and the tumor sizes ([3]; vehicle 185 mm^3) was 105 mm^3.
For `N#Cc1cccc(OC(=O)N2CCC(Cc3ccccc3)CC2)c1` [Example 52, 3-cyanophenyl 4-benzylpiperidine-1-carboxylate], the IC50 (Human FAAH (MBPΔTMhFAAH)) was 10 to 100 nM, the Kp [1] was 0.71 and the “amelioration of LiCl-induced anticipatory nausea” value [2] was “ameliorated anticipatory nausea”. The “Mean number of gapes elicited by a LiCl-paired context” value [2] was 3.
`O=C(N1C[C@@H]2C[C@H]1CN2Cc1cccc(-c2ccccc2)c1)n1cnc(Br)c1` [Example 100, ((1S,4S)-5-([1,1′-biphenyl]-3-ylmethyl)-2,5-diazabicyclo[2.2.1]heptan-2-yl)(4-bromo-1H-imidazol-1-yl)methanone] showed an IC50 (ΔTM rat FAAH) of 10 to 100 nM, an IC50 (Human FAAH (MBPΔTMhFAAH)) of 10 to 100 nM and an IC50 (Rat MAGL (rMAGL)) greater than 1000 nM. The IC50 (Human MAGL (hMAGL)) was greater than 1000 nM.
`O=C(Oc1ccccc1)N1C[C@@H]2C[C@H]1CN2Cc1cccc(-c2ccccc2)c1` [Example 101, phenyl (1S,4S)-5-([1,1′-biphenyl]-3-ylmethyl)-2,5-diazabicyclo[2.2.1]heptane-2-carboxylate] showed an IC50 (ΔTM rat FAAH) of 10 to 100 nM, an IC50 (Human FAAH (MBPΔTMhFAAH)) of 10 to 100 nM and an IC50 (Rat MAGL (rMAGL)) greater than 1000 nM. The IC50 (Human MAGL (hMAGL)) was greater than 1000 nM.
